Measured values as given in US20200347043A1, “MODULATORS OF THE INTEGRATED STRESS PATHWAY” (Calico Life Sciences LLC, priority 2019, published 2020).

System: HEK293T cells carrying the ATF4 luciferase reporter
Experiment: ATF4-Luc assay (in vitro model of VWMD)
Format: cell-based, human
Conditions: Homo sapiens, HEK-293T, 1 μg/mL tunicamycin, 7 hours, One Glo luminescence
Experimental: In order to test exemplary compounds of the invention in a cellular context, a stable VWMD cell line was first constructed. The ATF4 reporter was prepared by fusing the human full-length ATF4 5′-UTR (NCBI Accession No. BC022088.2) in front of the firefly luciferase (FLuc) coding sequence lacking the initiator methionine as described in Sidrauski et al (eLife 2013). The construct was used to produce recombinant retroviruses using standard methods and the resulting viral supernatant was used to transduce HEK293T cells, which were then subsequently selected with puromycin to generate a stable cell line.
HEK293T cells carrying the ATF4 luciferase reporter were plated on polylysine coated 384-well plates (Greiner Bio-one) at 30,000 cells per well. Cells were treated the next day with 1 μg/mL tunicamycin and 200 nM of a compound of Formula (I) for 7 hours. Luminescence was measured using One Glo (Promega) as specified by the manufacturer. Cells were maintained in DMEM with L-glutamine supplemented with 10% heat-inactivated FBS (Gibco) and Antibiotic-Antimycotic solution (Gibco).
Table 4 below summarizes the EC50 data obtained using the ATF4-Luc assay for exemplary compounds of the invention.

SMILES	EC50 [nM]
O=C(NC12CCC(C(=O)NCc3ccc(C(F)(F)F)cn3)(CC1)CC2)[C@H]1C[C@@H](O)c2cc(Cl)ccc2O1 [Compound 107, (2R,4R)-6-chloro-4-hydroxy-N-[4-({[5-(trifluoromethyl)pyridin-2-yl]methyl}carbamoyl)bicyclo[2.2.2]octan-1-yl]-3,4-dihydro-2H-1-benzopyran-2-carboxamide]	< 10
O=C1C[C@H](C(=O)NC23CC(c4nnc(COc5ccc(Cl)c(F)c5)o4)(C2)C3)Oc2ccc(Cl)cc21 [Compound 108, (2R)-6-chloro-N-(3-{5-[(4-chloro-3-fluorophenoxy)methyl]-1,3,4-oxadiazol-2-yl}bicyclo[1.1.1]pentan-1-yl)-4-oxo-3,4-dihydro-2H-1-benzopyran-2-carboxamide]	< 10
O=C1C[C@@H](C(=O)NC23CC(c4nnc(COc5ccc(Cl)c(F)c5)o4)(C2)C3)Oc2ccc(Cl)cc21 [Compound 109, (2S)-6-chloro-N-(3-{5-[(4-chloro-3-fluorophenoxy)methyl]-1,3,4-oxadiazol-2-yl}bicyclo[1.1.1]pentan-1-yl)-4-oxo-3,4-dihydro-2H-1-benzopyran-2-carboxamide]	10 to 50
O=C(NC12CC(c3nnc(COc4ccc(Cl)c(F)c4)o3)(C1)C2)[C@H]1C[C@@H](O)c2cc(Cl)ccc2O1 [Compound 110, (2R,4R)-6-chloro-N-(3-{5-[(4-chloro-3-fluorophenoxy)methyl]-1,3,4-oxadiazol-2-yl}bicyclo[1.1.1]pentan-1-yl)-4-hydroxy-3,4-dihydro-2H-1-benzopyran-2-carboxamide]	< 10
O=C(NC12CC(c3nnc(COc4ccc(Cl)c(F)c4)o3)(C1)C2)[C@@H]1C[C@H](O)c2cc(Cl)ccc2O1 [Compound 111, (2S,4S)-6-chloro-N-(3-{5-[(4-chloro-3-fluorophenoxy)methyl]-1,3,4-oxadiazol-2-yl}bicyclo[1.1.1]pentan-1-yl)-4-hydroxy-3,4-dihydro-2H-1-benzopyran-2-carboxamide]	10 to 50
O=C(CO[C@H]1C[C@@H](OC(F)(F)F)C1)NC12CCC(NC(=O)COc3ccc(Cl)c(F)c3)(CC1)[C@@H](O)C2 [Compound 112, 2-(4-chloro-3-fluorophenoxy)-N-[(2S)-2-hydroxy-4-(2-{[(1s,3R)-3-(trifluoromethoxy)cyclobutyl]oxy}acetamido)bicyclo[2.2.2]octan-1-yl]acetamide]	< 10
O=C(CO[C@H]1C[C@@H](OC(F)(F)F)C1)NC12CC(NC(=O)C3CC(=O)c4cc(Cl)ccc4O3)(C1)C2 (stereo partly shown) [Compound 113, 6-chloro-4-oxo-N-[3-(2-{[(1s,3s)-3-(trifluoromethoxy)cyclobutyl]oxy}acetamido)bicyclo[1.1.1]pentan-1-yl]-3,4-dihydro-2H-1-benzopyran-2-carboxamide]	10 to 50
O=C(CO[C@H]1C[C@@H](OC(F)(F)F)C1)NC12CCC(NC(=O)[C@H]3CC(=O)c4cc(Cl)ccc4O3)(CC1)C[C@@H]2O [Compound 115, (2R)-6-chloro-N-[(3S)-3-hydroxy-4-(2-{[(1s,3R)-3-(trifluoromethoxy)cyclobutyl]oxy}acetamido)bicyclo[2.2.2]octan-1-yl]-4-oxo-3,4-dihydro-2H-1-benzopyran-2-carboxamide]	< 10
O=C(COc1ccc(Cl)cc1)NC12CCC(NC(=O)CO[C@H]3C[C@@H](OC(F)(F)F)C3)(CC1)CC2 [Compound 116, 2-(4-chlorophenoxy)-N-[4-(2-{[(1s,3s)-3-(trifluoromethoxy)cyclobutyl]oxy}acetamido)bicyclo[2.2.2]octan-1-yl]acetamide]	< 10
O=C(CO[C@H]1C[C@@H](OC(F)(F)F)C1)NC12CCC(NC(=O)[C@H]3C[C@@H](O)c4cc(Cl)ccc4O3)(CC1)C[C@@H]2O [Compound 117, (2R,4R)-6-chloro-4-hydroxy-N-[(3S)-3-hydroxy-4-(2-{[(1s,3R)-3-(trifluoromethoxy)cyclobutyl]oxy}acetamido)bicyclo[2.2.2]octan-1-yl]-3,4-dihydro-2H-1-benzopyran-2-carboxamide]	< 10
O=C(COc1ccc(Cl)c(F)c1)NC12CC(NC(=O)[C@H]3C[C@@H](OC(F)(F)F)C3)(C1)C2 [Compound 118, (1s,3s)-N-{3-[2-(4-chloro-3-fluorophenoxy)acetamido]bicyclo[1.1.1]pentan-1-yl}-3-(trifluoromethoxy)cyclobutane-1-carboxamide]	500 to 2000
O=C(NC12CC(C(=O)NCc3ccc(C(F)(F)F)cn3)(C1)C2)[C@H]1C[C@@H](O)c2cc(Cl)ccc2O1 [Compound 119, (2R,4R)-6-chloro-4-hydroxy-N-[3-({[5-(trifluoromethyl)pyridin-2-yl]methyl}carbamoyl)bicyclo[1.1.1]pentan-1-yl]-3,4-dihydro-2H-1-benzopyran-2-carboxamide]	10 to 50
O=C(COc1ccc(Cl)c(F)c1)N[C@@H]1CC[C@@H](C(=O)N2CC(Oc3ccc(Cl)cc3)C2)OC1 [Compound 120, 2-(4-chloro-3-fluorophenoxy)-N-{(3R,6S)-6-[3-(4-chlorophenoxy)azetidine-1-carbonyl]oxan-3-yl}acetamide]	10 to 50
O=C(COc1ccc(Cl)c(F)c1)NC12CCC(c3nnc([C@H]4C[C@@H](OC(F)(F)F)C4)o3)(CC1)CC2O (stereo partly shown) [Compound 124, 2-(4-chloro-3-fluorophenoxy)-N-(2-hydroxy-4-{5-[(1s,3s)-3-(trifluoromethoxy)cyclobutyl]-1,3,4-oxadiazol-2-yl}bicyclo[2.2.2]octan-1-yl)acetamide]	10 to 50
O=C(N[C@H]1C[C@H]2CC[C@@H](C1)N2CCCOc1ccc(Cl)cc1)[C@H]1C[C@@H](O)c2cc(Cl)ccc2O1 [Compound 125, (2R,4R)-6-chloro-N-{(1R,3r,5S)-8-[3-(4-chlorophenoxy)propyl]-8-azabicyclo[3.2.1]octan-3-yl}-4-hydroxy-3,4-dihydro-2H-1-benzopyran-2-carboxamide]	50 to 250
O=C(NC12CC(C(=O)NCc3nc4cc(F)c(F)cc4[nH]3)(C1)C2)[C@H]1C[C@@H](O)c2cc(Cl)ccc2O1 [Compound 127, (2R,4R)-6-chloro-N-(3-{[(5,6-difluoro-1H-benzimidazol-2-yl)methyl]carbamoyl}bicyclo[1.1.1]pentan-1-yl)-4-hydroxy-3,4-dihydro-2H-1-benzopyran-2-carboxamide]	10 to 50
O=C(NC12CC(NC(=O)[C@H]3C[C@@H](OC(F)(F)F)C3)(C1)C2)[C@H]1C[C@@H](O)c2cc(Cl)ccc2O1 [Compound 128, (2R,4R)-6-chloro-4-hydroxy-N-(3-{[(1s,3S)-3-(trifluoromethoxy)cyclobutane-1-carbonyl]amino}bicyclo[1.1.1]pentan-1-yl)-3,4-dihydro-2H-1-benzopyran-2-carboxamide]	500 to 2000
O=C(COc1ccc(Cl)c(F)c1)NC12CC(C(=O)NCC3CCc4cc(Cl)ccc4O3)(C1)C2 (stereo not shown) [Compound 129, N-[(6-chloro-3,4-dihydro-2H-1-benzopyran-2-yl)methyl]-3-[2-(4-chloro-3-fluorophenoxy)acetamido]bicyclo[1.1.1]pentane-1-carboxamide]	10 to 50
O=C(COc1ccc(Cl)c(F)c1)N[C@H]1CC[C@H](NC(=O)C2CC(=O)c3cc(Cl)ccc3O2)CC1 (stereo partly shown) [Compound 130, 6-chloro-N-{(1r,4r)-4-[2-(4-chloro-3-fluorophenoxy)acetamido]cyclohexyl}-4-oxo-3,4-dihydro-2H-1-benzopyran-2-carboxamide]	250 to 500
O=C1C[C@H](C(=O)NC23CC(C(=O)NCc4ccc(C(F)(F)F)cn4)(C2)C3)Oc2ccc(Cl)cc21 [Compound 132, (2R)-6-chloro-4-oxo-N-[3-({[5-(trifluoromethyl)pyridin-2-yl]methyl}carbamoyl)bicyclo[1.1.1]pentan-1-yl]-3,4-dihydro-2H-1-benzopyran-2-carboxamide]	50 to 250
O=C1CC(C(=O)NC23CC(C(=O)NCc4ccc(C(F)(F)F)cn4)(C2)C3)Oc2ccc(Cl)cc21 (stereo not shown) [Compound 134, 6-chloro-4-oxo-N-[3-({[5-(trifluoromethyl)pyridin-2-yl]methyl}carbamoyl)bicyclo[1.1.1]pentan-1-yl]-3,4-dihydro-2H-1-benzopyran-2-carboxamide]	250 to 500
O=C1C[C@H](C(=O)NC23CC(C(=O)NCc4nc5cc(F)c(F)cc5[nH]4)(C2)C3)Oc2ccc(Cl)cc21 [Compound 135, (2R)-6-chloro-N-(3-{[(5,6-difluoro-1H-benzimidazol-2-yl)methyl]carbamoyl}bicyclo[1.1.1]pentan-1-yl)-4-oxo-3,4-dihydro-2H-1-benzopyran-2-carboxamide]	50 to 250
O=C1CC(C(=O)N[C@@H]2CC[C@@H](C(=O)NCc3ccc(C(F)(F)F)cc3)OC2)Oc2ccc(Cl)cc21 (stereo partly drawn) [Compound 137, 6-chloro-4-oxo-N-[(3R,6S)-6-({[4-(trifluoromethyl)phenyl]methyl}carbamoyl)oxan-3-yl]-3,4-dihydro-2H-1-benzopyran-2-carboxamide]	50 to 250
O=C1CC(C(=O)N[C@H]2CC[C@H](C(=O)NCc3nc4ccc(Cl)cc4[nH]3)CC2)Oc2ccc(Cl)cc21 (stereo partly shown) [Compound 138, 6-chloro-N-[(1r,4r)-4-{[(6-chloro-1H-benzimidazol-2-yl)methyl]carbamoyl}cyclohexyl]-4-oxo-3,4-dihydro-2H-1-benzopyran-2-carboxamide]	50 to 250
O=C1CC(C(=O)N[C@@H]2CC[C@@H](C(=O)N3CC(Oc4ccc(Cl)cc4)C3)OC2)Oc2ccc(Cl)cc21 (stereo partly drawn) [Compound 139, 6-chloro-N-{(3R,6S)-6-[3-(4-chlorophenoxy)azetidine-1-carbonyl]oxan-3-yl}-4-oxo-3,4-dihydro-2H-1-benzopyran-2-carboxamide]	500 to 2000
